These results are taken from US6200999A, “3-Alkoxyisoxazol-4-yl-substituted 2-amino carboxylic acid compounds” (H. Lundbeck A/S, priority 1996, dated 2001).

Structures can show the parent of a compound that is named as a salt.

In one data set the test system is AMPA receptors. The following applies: literature; cited from earlier work.
In a further data set the test system is animals. As to conditions: literature; cited from earlier work.
For data set [1] the following is noted: literature; cited from earlier work.
A further data set concerns AMPA receptor. Nature of the data set: Cortical wedge model, AMPA receptor (rat brain slices in vitro). As to conditions: receptor subtype AMPA; for EC50: agonists. Format: cell-based. As to the method:
(§1) The Cortical wedge model is a test in which slices of rat brain is examined in vitro in order to quantify the effect of ligands at the various Glu-receptors and evaluate the pharmacological profile of the ligands (i.e. agonist/antagonist properties). The test was performed as described by Harrison, N. L. and Simmonds, M. A. Br.J.Pharmacol. 1985, 84, 381-391 as modified according to Wheatley, P. L. Br.J.Pharmacol. 1986, 87, 159P.

The subject of a further data set is NMDA receptor. Nature of the data set: Cortical wedge model, NMDA receptor (rat brain slices in vitro). Format: cell-based. As to conditions: receptor subtype NMDA; for pKi: antagonist. The procedure:
as §1

On to `Cc1onc(C(=O)O)c1CC(N)C(=O)O` (racemic) [ACPA], for which the “agonist effects at AMPA receptors” value in the data set with AMPA receptors is given as “potent AMPA receptor agonist”. For `Cc1onc(O)c1CC(N)C(=O)O` (racemic) [AMPA, (RS)-2-amino-3-(3-hydroxy-5-methylisoxazol-4-yl)propionic acid], in the data set with AMPA receptors, the “agonist effects at AMPA receptors” value is recorded as “selective agonist effects at AMPA receptors”. Turning to `NC(Cc1c(O)noc1-c1ccccc1)C(=O)O` (racemic) [APPA, (RS)-2-Amino-3-(3-hydroxy-5-phenylisoxazol-4-yl)propionic acid], the “agonist effects at AMPA receptors” value with AMPA receptors is listed as “weak but unique partial agonist profile”. As for `CC(C)(C)c1onc(O)c1CC(N)C(=O)O` (racemic) [ATPA], the neurotoxic effects result in the data set with animals is “has not been reported to show neurotoxic effects in animals”. Moreover, the systemic activity entry in data set [1] was “systemically active”. A word on the EC50: it is the concentration giving half of the maximal effect. Read a low EC50 as higher potency in that assay. With `COc1noc(C(=O)O)c1CC(N)C(=O)O.O` (racemic) [Compound 1, (RS)-2-Amino-3-(5-carboxy-3-methoxyisoxazol-4-yl)propionic Acid Hydrate], in the data set with AMPA receptor, the Profile entry is on record as “Agonist” and the 50% effective concentration (EC50) came to 1.2 µM. For `CCOc1noc(C(=O)O)c1CC(N)C(=O)O` (racemic) [Compound 2, (RS)-2-Amino-3-(5-carboxy-3-ethoxyisoxazol-4-yl)propionic Acid], in that order: “Agonist” and 4.8 µM.

On to `CC(C)Oc1noc(C(=O)O)c1CC(N)C(=O)O` (racemic) [Compound 3, (RS)-2-Amino-3-(5-carboxy-3-isopropoxyisoxazol-4-yl)propionic Acid], for which, in the data set with AMPA receptor, the Profile entry is listed as “Agonist” and the EC50 worked out at 40 µM. For the compound `CCOc1noc(-c2nnn[nH]2)c1CC(N)C(=O)O` (racemic) [Compound 8, (RS)-2-Amino-3-[3-ethoxy-5-(5-tetrazolyl)isoxazol-4-yl]propionic acid], in the data set on AMPA receptor, the Profile entry is “Agonist” and the EC50 amounted to 2000 µM. For `CCCOc1noc(C(=O)O)c1CC(N)C(=O)O` (racemic) [Compound 10, (RS)-2-Amino-3-(3-propoxy-5-carboxyisoxazol-4-yl)propionic Acid] the same measures were “Agonist” and 80 µM. `CCCCOc1noc(C(=O)O)c1CC(N)C(=O)O` (racemic) [Compound 11, (RS)-2-Amino-3-(3-butoxy-5-carboxisoxazol-4-yl)propionic Acid]: in the data set on AMPA receptor, the Profile result is listed as “Part. Agonist” and the EC50 was found to be 325 µM. For `C=CCOc1noc(C(=O)O)c1CC(N)C(=O)O` (racemic) [Compound 12, (RS)-2-Amino-3-(3-allyloxy-5-carboxyisoxazol-4-yl)propionic Acid], in that order: “Agonist” and 40 µM. Usually pKi stands for the Ki on a negative log10 scale, so that one unit is a factor of ten. Consider `NC(Cc1c(C(=O)O)on(Cc2ccccc2)c1=O)C(=O)O` (racemic) [Compound 13, (RS)-2-Amino-3-(2-benzyl-5-carboxy-2,3-dihydro-3oxisoxazol-4-yl)propionic Acid, Hydrochloride, Monohydrate], for which, in the data set with NMDA receptor, the Profile entry was “Antagonist” and the pKi turned out to be 3.5. For the compound `CCOc1noc(C(=O)O)c1C[C@@H](N)C(=O)O` [(R)-2, (R)-2-Amino-3-(5-carboxy-3-ethoxyisoxazol-4-yl)propionic Acid], the Profile entry in the data set on AMPA receptor is “Antagonist”. Moreover, on AMPA receptor (antagonist), the pKi is 3.28. Consider `CCOc1noc(C(=O)O)c1C[C@H](N)C(=O)O` [(S)-2, (S)-2-Amino-3-(5-carboxy-3-ethoxyisoxazol-4-yl)propionic Acid], for which, in the data set on AMPA receptor, the Profile entry was “Agonist” and it took 4.4 µM to reach a half-maximal effect (EC50). Regarding `CCOc1noc(C(=O)O)c1CNc1c(N)c(=O)c1=O` [Compound 17, [4-(2-Amino-3,4-dioxocyclobut-1-en-1-yl)aminomethyl]-3-ethoxyisoxazole-5-carboxylic Acid], in the data set on NMDA receptor, the Profile entry is “Antagonist” and the pKi amounted to 3.3.
